Reference: paper PMC8231113, “Protein Secondary Structure Affects Glycan Clustering in Native Mass Spectrometry” (Life, 2021)

Columns and labels:
Format in all cases: binding
[1] = target: T1, ubiquitin from bovine erythrocytes (Ubq) (Bos taurus, UniProt P0CG53); experiment: Native MS glycan clustering to reference protein Ubq; settings: on Ubq
T1 construct: ubiquitin from bovine erythrocytes (Ubq, CAS number 75986-22-4); purchased Sigma-Aldrich (Merck, Germany); host or cells: bovine erythrocytes
Experimental: (§1) Prior to MS analysis, purified P dimers were buffer exchanged to 150 mM ammonium acetate (Sigma-Aldrich, reagent grade ≥98%) at pH 7 via centrifugal filter units at 12,000× g at 4 °C (Vivaspin 500, MWCO 10000, Sartorius). Glycans for native MS analysis were mixed with 1 µM (per monomer) purified GII.4 Saga P dimer and 3 µM of the reference proteins at indicated concentrations. Native mass spectra were measured at room temperature in positive ion mode on a high mass modified LCT Premier mass spectrometer (Waters/Micromass, UK and MS Vision, the Netherlands) with a nano-ESI source. In house-made gold-coated electrospray capillaries were used for direct-sample infusion without any accessory chromatographic separation. The voltages and pressures were optimized for non-covalent protein complexes. The gas pressure used in the source hexapole was set between 6.5 and 6.8 × 10^−2 mbar argon optimized for minimal complex dissociation and the backing pressure of the source roughing pump was set between 7.0 and 8.5 mbar. Spectra were recorded with applied voltages for the capillary and cone of 1.20 kV and 240 V, respectively. Note that charge state distributions for P dimers were sometimes slightly shifted as was the degree of glycan clustering per charge state. These changes were highly variable and not quantifiable.
(§2) For calibration of the raw data, a 25 mg/mL cesium iodide spectrum from the same day was used. MassLynx V4.1 (Waters, Manchester, UK) was used to assign peak series to protein species and to determine the mass after minimal smoothing. Furthermore, OriginPro 2016 SR2 (OriginLab, Northampton, MA, USA) was used for spectral deconvolution and curve fitting. Correction for nonspecific protein-ligand clustering was performed as described. Corrected peak areas were averaged and normalized to the free-protein signal. Data were based on at least three independent measurements. Python code Panda and Numpy package were used to calculate the specific binding of P dimers according to the glycan clustering ratio obtained from the selected reference protein candidates. Seaborn and matplotlib.pyplot package were imported into a python script to plot the results. The module of sklearn.linear model was applied for linear regression. The matplotlib and heatmap package were used to plot the heatmap.
(§3) Theoretically, the KD is calculated by measuring the concentration of the three components (Pfree, Lfree, PL) in solution. Usually, these values are only indirectly accessible because they require ligand titration up to binding saturation. However, native MS allows for the directly measurement of Pfree and PL, from which Lfree can be calculated using the input concentrations. In the present work, the non-covalent interaction was measured in the gas phase assuming identical ESI and detection efficiency for free and glycan-associated proteins, both for the analyte and the reference protein. […] For P dimers, the equations reflect glycan binding to the individual monomers assuming that binding sites on each monomer are equal and independent.
(§4) Using R described in Equation (3), the KD calculation can be re-written into Equation (4) with the known initial concentration of glycan ligand [L0] and protein [P0], adapted from Sun et al.:(3) R=PLequil∕Pequil=∑nA(PL^n+)∕n∕∑nA(P^n+)∕n (4) KD =L0−RP0/1+R/R
(§5) For the carbohydrate-binding experiments, it was essential to keep the initial protein concentrations and pH value constant during the analysis of the protein-carbohydrate solutions. While acidification occurs in any ESI droplet, the remaining solution in the capillary changes pH over time. Therefore, accumulated spectra were obtained within 10 min after the voltages were applied to minimize the influence of pH changes during the measurements. […]

[2] = target: T2, cytochrome c from equine heart (cyt c) (Equus caballus, UniProt P00004); experiment: Native MS glycan clustering to reference protein cyt c; settings: on Cyt c
T2 construct: cytochrome c from equine heart (cyt c, CAS number 9007-43-6); purchased Sigma-Aldrich (Merck, Germany); host or cells: equine heart
T2 sequence (P00004 whole entry): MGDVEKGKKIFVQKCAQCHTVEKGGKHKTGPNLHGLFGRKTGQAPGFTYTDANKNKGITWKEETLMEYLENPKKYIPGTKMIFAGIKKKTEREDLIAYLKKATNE
Experimental: as §1, §2, §3, §4, §5

[3] = target: T3, myoglobin from equine heart (Myo) (Equus caballus, UniProt P68082); experiment: Native MS glycan clustering to reference protein Myo; settings: on Myo
T3 construct: myoglobin from equine heart (Myo, CAS number 100684-32-0); purchased Sigma-Aldrich (Merck, Germany); host or cells: equine heart
T3 sequence (P68082 whole entry): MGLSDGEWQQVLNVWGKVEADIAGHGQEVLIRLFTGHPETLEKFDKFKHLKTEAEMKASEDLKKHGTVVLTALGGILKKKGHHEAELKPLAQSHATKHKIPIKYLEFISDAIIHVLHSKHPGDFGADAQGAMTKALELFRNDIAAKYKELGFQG
Experimental: as §1, §2, §3, §4, §5

[4] = target: T4, carbonic anhydrase isozyme II from bovine erythrocytes (CA) (Bos taurus, UniProt P00921); experiment: Native MS glycan clustering to reference protein CA; settings: on CA
T4 construct: carbonic anhydrase isozyme II from bovine erythrocytes (CA, CAS number 9001-03-0); purchased Sigma-Aldrich (Merck, Germany); host or cells: bovine erythrocytes
T4 sequence (P00921 whole entry): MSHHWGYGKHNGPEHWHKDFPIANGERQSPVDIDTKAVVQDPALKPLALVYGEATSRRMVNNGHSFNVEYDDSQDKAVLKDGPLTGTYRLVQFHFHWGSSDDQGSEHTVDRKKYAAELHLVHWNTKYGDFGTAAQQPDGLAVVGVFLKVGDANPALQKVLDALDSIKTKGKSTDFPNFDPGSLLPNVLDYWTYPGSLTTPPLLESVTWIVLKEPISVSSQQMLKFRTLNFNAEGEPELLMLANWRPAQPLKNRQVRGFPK
Experimental: as §1, §2, §3, §4, §5

[5] = target: T5, human apo-transferrin (apo-TFF) (Homo sapiens, UniProt P02787); experiment: Native MS glycan clustering to reference protein apo-TFF; settings: on apo-TFF
T5 construct: purchased Sigma-Aldrich (Merck, Germany)
T5 sequence (P02787 20-698): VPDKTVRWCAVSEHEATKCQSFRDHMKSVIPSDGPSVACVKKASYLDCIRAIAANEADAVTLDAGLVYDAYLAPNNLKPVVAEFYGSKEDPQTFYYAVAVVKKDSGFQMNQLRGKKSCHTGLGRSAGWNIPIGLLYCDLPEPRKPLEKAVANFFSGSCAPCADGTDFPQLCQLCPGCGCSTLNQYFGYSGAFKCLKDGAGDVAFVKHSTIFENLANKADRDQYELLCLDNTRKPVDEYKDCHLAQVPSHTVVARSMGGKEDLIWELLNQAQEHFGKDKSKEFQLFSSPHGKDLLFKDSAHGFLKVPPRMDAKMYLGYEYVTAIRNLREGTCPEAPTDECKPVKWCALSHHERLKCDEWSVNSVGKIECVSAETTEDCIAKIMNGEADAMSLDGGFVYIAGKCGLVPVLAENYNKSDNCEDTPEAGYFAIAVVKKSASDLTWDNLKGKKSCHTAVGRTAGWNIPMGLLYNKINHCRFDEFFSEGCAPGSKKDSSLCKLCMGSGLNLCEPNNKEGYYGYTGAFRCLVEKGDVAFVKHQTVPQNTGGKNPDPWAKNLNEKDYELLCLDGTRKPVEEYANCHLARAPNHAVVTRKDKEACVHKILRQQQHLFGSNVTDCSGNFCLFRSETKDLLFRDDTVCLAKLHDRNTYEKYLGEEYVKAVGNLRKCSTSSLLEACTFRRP
Experimental: as §1, §2, §3, §4, §5

[6] = target: T6, alcohol dehydrogenase from Saccharomyces cerevisiae (ADH) (Saccharomyces cerevisiae, UniProt P00330); experiment: Native MS glycan clustering to reference protein ADH; settings: on ADH
T6 construct: alcohol dehydrogenase from Saccharomyces cerevisiae (ADH, CAS number 9031-72-5); purchased Sigma-Aldrich (Merck, Germany); host or cells: Saccharomyces cerevisiae
T6 sequence (P00330 2-348 limits assumed): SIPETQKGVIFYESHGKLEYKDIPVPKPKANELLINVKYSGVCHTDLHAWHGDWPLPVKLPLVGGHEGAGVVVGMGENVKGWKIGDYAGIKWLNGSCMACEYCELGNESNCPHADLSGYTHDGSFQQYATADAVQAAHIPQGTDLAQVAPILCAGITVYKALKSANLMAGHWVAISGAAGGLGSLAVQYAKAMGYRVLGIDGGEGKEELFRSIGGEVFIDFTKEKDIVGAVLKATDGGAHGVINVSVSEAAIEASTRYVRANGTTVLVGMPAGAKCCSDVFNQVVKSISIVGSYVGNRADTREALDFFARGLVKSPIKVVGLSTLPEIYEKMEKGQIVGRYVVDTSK
Experimental: as §1, §2, §3, §4, §5

SMILES | Glycan-Clustering Ratio R ([1]; 100 µM glycan) | Glycan-Clustering Ratio R ([1]; 200 µM glycan) | Glycan-Clustering Ratio R ([1]; 300 µM glycan) | Glycan-Clustering Ratio R ([1]; 400 µM glycan) | Glycan-Clustering Ratio R ([1]; 500 µM glycan) | Glycan-Clustering Ratio R ([2]; 100 µM glycan) | Glycan-Clustering Ratio R ([2]; 200 µM glycan) | Glycan-Clustering Ratio R ([2]; 300 µM glycan) | Glycan-Clustering Ratio R ([2]; 400 µM glycan) | Glycan-Clustering Ratio R ([2]; 500 µM glycan) | Glycan-Clustering Ratio R ([3]; 100 µM glycan) | Glycan-Clustering Ratio R ([3]; 200 µM glycan) | Glycan-Clustering Ratio R ([3]; 300 µM glycan) | Glycan-Clustering Ratio R ([3]; 400 µM glycan) | Glycan-Clustering Ratio R ([3]; 500 µM glycan) | Glycan-Clustering Ratio R ([4]; 100 µM glycan) | Glycan-Clustering Ratio R ([4]; 200 µM glycan) | Glycan-Clustering Ratio R ([4]; 300 µM glycan) | Glycan-Clustering Ratio R ([4]; 400 µM glycan) | Glycan-Clustering Ratio R ([4]; 500 µM glycan) | also measured
CC(=O)N[C@H]1[C@H](O[C@H]2[C@@H](O)[C@@H](CO)O[C@H](O[C@@H]3[C@H](O)[C@@H](O)[C@H](O[C@H]4[C@H](O)[C@@H](O)C(O)O[C@@H]4CO)O[C@@H]3CO)[C@@H]2O)O[C@H](CO)[C@H](O)[C@@H]1O (stereo partly drawn) [Gb4, GalNAc β1-3 Galα1-4Galβ1-4Glc] | 0.03±0.01 | 0.04±0.01 | 0.12±0.02 | 0.21±0.20 | 0.09 ± 0.03 | 0.10±0.01 | 0.15±0.00 | 0.19±0.03 | 0.29±0.04 | 0.45 ± 0.02 | 0.14±0.02 | 0.17±0.03 | 0.20±0.03 | 0.30±0.01 | 0.37 ± 0.06 | 0.21±0.01 | 0.32±0.07 | 0.50±0.00 | 0.60±0.05 | 0.75 ± 0.03 | Glycan-Clustering Ratio R ([5]; 100 µM glycan): 0.36±0.05; Glycan-Clustering Ratio R ([5]; 200 µM glycan): 0.57±0.06; Glycan-Clustering Ratio R ([5]; 300 µM glycan): 0.63±0.02; Glycan-Clustering Ratio R ([5]; 400 µM glycan): 0.69±0.02; Glycan-Clustering Ratio R ([5]; 500 µM glycan): 0.80 ± 0.05; Glycan-Clustering Ratio R ([6]; 100 µM glycan): 0.34±0.04; Glycan-Clustering Ratio R ([6]; 200 µM glycan): 0.66±0.03; Glycan-Clustering Ratio R ([6]; 300 µM glycan): 0.81±0.11; Glycan-Clustering Ratio R ([6]; 400 µM glycan): 1.03±0.08; Glycan-Clustering Ratio R ([6]; 500 µM glycan): 1.26 ± 0.03
CC(=O)N[C@H]1[C@@H](O[C@H]2[C@@H](O)[C@@H](CO)O[C@@H](O[C@H]3[C@H](O)[C@@H](CO)OC(O)[C@@H]3NC(C)=O)[C@@H]2O[C@@H]2O[C@@H](C)[C@@H](O)[C@@H](O)[C@@H]2O)O[C@H](CO)[C@H](O)[C@@H]1O (stereo partly drawn) [HBGA A, GalNAcα1-3(Fucα-2)Galβ1-3GlcNAc] | 0.06±0.03 | 0.04±0.01 | 0.13±0.01 | 0.18±0.01 | 0.10 ± 0.05 | 0.18±0.03 | 0.16± 0.02 | 0.19± 0.03 | 0.27± 0.02 | 0.41 ± 0.09 | 0.13±0.03 | 0.16±0.03 | 0.22±0.03 | 0.29±0.04 | 0.34 ± 0.03 | 0.20±0.05 | 0.37±0.01 | 0.42±0.02 | 0.57±0.02 | 0.74 ± 0.07 | Glycan-Clustering Ratio R ([5]; 100 µM glycan): 0.39±0.02; Glycan-Clustering Ratio R ([5]; 200 µM glycan): 0.57±0.05; Glycan-Clustering Ratio R ([5]; 300 µM glycan): 0.65±0.02; Glycan-Clustering Ratio R ([5]; 400 µM glycan): 0.71±0.03; Glycan-Clustering Ratio R ([5]; 500 µM glycan): 0.79 ± 0.03; Glycan-Clustering Ratio R ([6]; 100 µM glycan): 0.39± 0.02; Glycan-Clustering Ratio R ([6]; 200 µM glycan): 0.65± 0.02; Glycan-Clustering Ratio R ([6]; 300 µM glycan): 0.88± 0.10; Glycan-Clustering Ratio R ([6]; 400 µM glycan): 0.98± 0.05; Glycan-Clustering Ratio R ([6]; 500 µM glycan): 1.32 ± 0.10
CC(=O)N[C@H]1C(O)O[C@H](CO)[C@@H](O)[C@@H]1O[C@@H]1O[C@H](CO)[C@H](O)[C@H](O[C@H]2O[C@H](CO)[C@H](O)[C@H](O)[C@H]2O)[C@H]1O[C@@H]1O[C@@H](C)[C@@H](O)[C@@H](O)[C@@H]1O (stereo partly drawn) [HBGA B, Galα1-3(Fucα1-2)Galβ1-3GlcNAc] | 0.04±0.01 | 0.04±0.01 | 0.10±0.03 | 0.18±0.01 | 0.25 ± 0.00 | 0.14±0.01 | 0.15±0.01 | 0.19±0.03 | 0.29±0.02 | 0.35 ± 0.03 | 0.14±0.03 | 0.18±0.02 | 0.19±0.06 | 0.31±0.04 | 0.36 ± 0.05 | 0.22±0.03 | 0.32±0.05 | 0.40±0.04 | 0.60±0.05 | 0.75 ± 0.07 | Glycan-Clustering Ratio R ([5]; 100 µM glycan): 0.37±0.03; Glycan-Clustering Ratio R ([5]; 200 µM glycan): 0.56±0.05; Glycan-Clustering Ratio R ([5]; 300 µM glycan): 0.62±0.03; Glycan-Clustering Ratio R ([5]; 400 µM glycan): 0.74±0.01; Glycan-Clustering Ratio R ([5]; 500 µM glycan): 0.82 ± 0.03; Glycan-Clustering Ratio R ([6]; 100 µM glycan): 0.42±0.03; Glycan-Clustering Ratio R ([6]; 200 µM glycan): 0.64±0.06; Glycan-Clustering Ratio R ([6]; 300 µM glycan): 0.97±0.08; Glycan-Clustering Ratio R ([6]; 400 µM glycan): 1.02±0.08; Glycan-Clustering Ratio R ([6]; 500 µM glycan): 1.45 ± 0.11
